Experimental findings from publication PMC9067983, “Identification of highly selective type II kinase inhibitors with chiral peptidomimetic tails” (Journal of Enzyme Inhibition and Medicinal Chemistry, 2022) are described below.

The structures appear in SMILES notation.

Assay [1] concerns the target T1, Lck (Homo sapiens, UniProt P06239).
T1 construct: purchased Reaction Biology Corp
Put plainly: Biochemical IC50 on Lck at Km and 1 mM ATP. The protocol: (§1) Full panel kinase profiling and kinase IC50 measurement were performed by using Reaction Biology Corp. (San Diego, USA).

The target in another assay is T2, Abl1 (Homo sapiens, UniProt P00519).
T2 construct: purchased Reaction Biology Corp
T2 sequence (P00519 whole entry): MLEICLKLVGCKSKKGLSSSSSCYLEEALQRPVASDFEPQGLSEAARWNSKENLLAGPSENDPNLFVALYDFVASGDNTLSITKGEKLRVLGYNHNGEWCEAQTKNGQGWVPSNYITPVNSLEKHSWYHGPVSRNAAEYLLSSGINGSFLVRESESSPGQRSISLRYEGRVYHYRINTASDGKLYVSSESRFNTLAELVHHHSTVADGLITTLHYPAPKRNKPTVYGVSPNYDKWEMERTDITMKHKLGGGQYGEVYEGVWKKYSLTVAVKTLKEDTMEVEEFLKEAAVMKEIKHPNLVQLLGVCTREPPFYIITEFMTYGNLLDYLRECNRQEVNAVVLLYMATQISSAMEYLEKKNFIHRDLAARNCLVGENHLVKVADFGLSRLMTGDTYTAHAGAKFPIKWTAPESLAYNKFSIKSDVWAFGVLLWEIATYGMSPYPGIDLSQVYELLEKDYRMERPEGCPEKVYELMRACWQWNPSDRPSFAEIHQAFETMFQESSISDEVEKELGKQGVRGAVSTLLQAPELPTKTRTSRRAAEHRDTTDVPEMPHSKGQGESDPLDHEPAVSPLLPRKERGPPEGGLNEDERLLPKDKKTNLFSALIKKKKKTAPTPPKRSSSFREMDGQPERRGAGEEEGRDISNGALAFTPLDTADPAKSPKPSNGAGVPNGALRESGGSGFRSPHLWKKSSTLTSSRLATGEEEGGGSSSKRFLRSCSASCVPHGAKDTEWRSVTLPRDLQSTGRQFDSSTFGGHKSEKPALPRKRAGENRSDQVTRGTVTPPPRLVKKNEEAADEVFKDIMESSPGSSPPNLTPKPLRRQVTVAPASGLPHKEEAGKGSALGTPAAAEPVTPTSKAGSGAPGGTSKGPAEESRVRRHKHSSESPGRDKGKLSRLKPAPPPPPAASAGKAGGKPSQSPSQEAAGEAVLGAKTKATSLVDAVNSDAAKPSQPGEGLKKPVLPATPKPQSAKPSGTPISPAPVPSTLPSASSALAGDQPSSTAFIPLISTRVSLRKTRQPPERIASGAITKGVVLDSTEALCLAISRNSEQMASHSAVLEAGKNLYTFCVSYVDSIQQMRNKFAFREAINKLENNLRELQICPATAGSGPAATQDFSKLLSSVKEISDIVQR
Put plainly: In vitro kinase assay (IC50). The assay is classed as biochemical. As to the method: as §1

A further assay deals with T3, p38a (Homo sapiens, UniProt Q16539).
T3 construct: purchased Reaction Biology Corp
T3 sequence (Q16539 whole entry): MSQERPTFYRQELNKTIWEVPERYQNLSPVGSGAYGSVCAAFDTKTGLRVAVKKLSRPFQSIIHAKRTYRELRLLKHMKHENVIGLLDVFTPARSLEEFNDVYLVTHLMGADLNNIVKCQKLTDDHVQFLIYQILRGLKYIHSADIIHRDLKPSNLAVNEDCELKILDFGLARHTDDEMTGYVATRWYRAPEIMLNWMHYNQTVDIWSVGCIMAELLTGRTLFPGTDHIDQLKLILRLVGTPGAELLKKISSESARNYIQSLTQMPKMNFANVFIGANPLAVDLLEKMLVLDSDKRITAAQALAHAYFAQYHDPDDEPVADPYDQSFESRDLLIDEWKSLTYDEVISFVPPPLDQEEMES
Put plainly: In vitro kinase assay (IC50). Type of assay: biochemical. The protocol:
as §1

For another assay, the target named is T4, c-Src (Homo sapiens, UniProt P12931).
T4 construct: purchased Reaction Biology Corp
T4 sequence (P12931 whole entry): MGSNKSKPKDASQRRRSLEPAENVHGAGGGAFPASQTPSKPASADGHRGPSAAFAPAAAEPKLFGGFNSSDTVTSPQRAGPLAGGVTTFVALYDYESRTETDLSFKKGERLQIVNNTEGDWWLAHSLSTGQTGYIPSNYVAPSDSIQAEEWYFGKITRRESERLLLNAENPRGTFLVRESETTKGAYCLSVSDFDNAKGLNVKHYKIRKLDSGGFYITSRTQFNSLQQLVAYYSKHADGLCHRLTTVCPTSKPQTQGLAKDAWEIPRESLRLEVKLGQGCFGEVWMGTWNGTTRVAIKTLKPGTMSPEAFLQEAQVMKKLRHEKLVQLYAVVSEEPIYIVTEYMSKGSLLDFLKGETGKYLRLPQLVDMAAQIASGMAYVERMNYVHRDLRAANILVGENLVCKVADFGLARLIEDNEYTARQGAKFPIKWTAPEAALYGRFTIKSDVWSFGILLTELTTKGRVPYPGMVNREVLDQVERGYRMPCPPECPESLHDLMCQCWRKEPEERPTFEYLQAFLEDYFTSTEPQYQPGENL
Put plainly: In vitro kinase assay (IC50). The assay is classed as biochemical. The protocol:
as §1

The target in assay [2] is T1, Lck. Put plainly: In vitro kinase assay (IC50). Type of assay: biochemical. The protocol:
as §1

T1 sequence (P06239 whole entry): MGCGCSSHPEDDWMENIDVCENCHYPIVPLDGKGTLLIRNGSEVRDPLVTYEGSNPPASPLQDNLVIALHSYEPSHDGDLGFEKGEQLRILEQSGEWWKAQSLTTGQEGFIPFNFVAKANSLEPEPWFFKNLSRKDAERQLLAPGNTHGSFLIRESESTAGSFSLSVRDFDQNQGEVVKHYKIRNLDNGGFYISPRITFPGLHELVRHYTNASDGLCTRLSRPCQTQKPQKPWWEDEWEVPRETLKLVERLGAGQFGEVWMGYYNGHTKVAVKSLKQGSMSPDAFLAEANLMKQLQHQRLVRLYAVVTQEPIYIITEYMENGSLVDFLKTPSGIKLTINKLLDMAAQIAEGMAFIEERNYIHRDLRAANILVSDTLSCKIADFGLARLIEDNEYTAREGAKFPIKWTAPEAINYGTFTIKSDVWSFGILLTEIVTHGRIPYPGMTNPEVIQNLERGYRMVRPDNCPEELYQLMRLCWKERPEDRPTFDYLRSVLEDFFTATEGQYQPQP

As for `Cc1ccc(Nc2ncc3c(n2)N(C)C(=O)N(c2cc(NC(=O)c4ccc5c(c4)N(Cc4ccccc4)C(=O)[C@H](CC(C)C)N=C5c4ccccc4)ccc2C)C3)cn1` [11b, (S)-1-benzyl-3-isobutyl-N-(4-methyl-3-(1-methyl-7-((6-methylpyridin-3-yl)amino)-2-oxo-1,4-dihydropyrimido[4,5-d]pyrimidin-3(2H)-yl)phenyl)-2-oxo-5-phenyl-2,3-dihydro-1H-benzo[e][1,4]diazepine-8-carboxamide], the 50% inhibitory concentration (IC50) (as a rule, the concentration needed to halve the response being measured) against Lck [1] (ATP conc. 14 µM (Km)) was 510 nM; against Lck [1] (ATP conc. 1 mM) it was greater than 100000 nM; against Abl1, 453 nM; at p38a it was 3430 nM; on c-Src it was 410 nM; at Lck [2], 37.3 nM. For the same molecule, the mode of inhibition entry at Lck [1] (IC50 at Km vs 1 mM ATP) is listed as “ATP competitive kinase inhibitors”. The “selectivity for Lck over c-Src” value at Lck [2] is reported as “over 10 fold”.
Consider `CC[C@@H](C)[C@H]1N=C(c2ccccc2)c2ccc(C(=O)Nc3ccc(C)c(N4Cc5cnc(Nc6ccc(C)nc6)nc5N(C)C4=O)c3)cc2NC1=O` [11e, (R)-3-((R)-s-butyl)-N-(4-methyl-3-(1-methyl-7-((6-methylpyridin-3-yl)amino)-2-oxo-1,4-dihydropyrimido[4,5-d]pyrimidin-3(2H)-yl)phenyl)-2-oxo-5-phenyl-2,3-dihydro-1H-benzo[e][1,4]diazepine-8-carboxamide], for which the IC50 against Abl1 worked out at 55.2 nM; on p38a, 250 nM; on c-Src, 12.8 nM; against Lck [2], 10.7 nM.
